This note sets out measurements from BindingDB's records for PubMed 9454790 (University of Arizona, 1998).

The target in assay [1] is T1, Muscarinic acetylcholine receptor M2 (Homo sapiens, UniProt P08172).
T1 sequence (P08172 whole entry): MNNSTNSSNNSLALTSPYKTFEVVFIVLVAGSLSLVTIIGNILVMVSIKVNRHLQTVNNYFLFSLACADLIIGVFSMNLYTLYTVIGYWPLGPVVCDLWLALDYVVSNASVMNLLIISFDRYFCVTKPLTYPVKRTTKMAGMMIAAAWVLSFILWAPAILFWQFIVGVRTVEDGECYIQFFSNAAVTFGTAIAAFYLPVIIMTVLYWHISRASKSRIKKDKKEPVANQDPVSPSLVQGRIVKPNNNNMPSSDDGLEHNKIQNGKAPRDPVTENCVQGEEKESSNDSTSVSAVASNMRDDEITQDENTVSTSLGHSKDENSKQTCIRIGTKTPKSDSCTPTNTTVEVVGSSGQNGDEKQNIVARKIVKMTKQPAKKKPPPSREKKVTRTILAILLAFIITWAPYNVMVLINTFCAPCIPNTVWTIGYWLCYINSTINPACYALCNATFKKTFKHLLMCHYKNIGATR

Assay [2] deals with T2, Muscarinic acetylcholine receptor M2 (Rattus norvegicus, UniProt P10980).
T2 sequence (P10980 whole entry): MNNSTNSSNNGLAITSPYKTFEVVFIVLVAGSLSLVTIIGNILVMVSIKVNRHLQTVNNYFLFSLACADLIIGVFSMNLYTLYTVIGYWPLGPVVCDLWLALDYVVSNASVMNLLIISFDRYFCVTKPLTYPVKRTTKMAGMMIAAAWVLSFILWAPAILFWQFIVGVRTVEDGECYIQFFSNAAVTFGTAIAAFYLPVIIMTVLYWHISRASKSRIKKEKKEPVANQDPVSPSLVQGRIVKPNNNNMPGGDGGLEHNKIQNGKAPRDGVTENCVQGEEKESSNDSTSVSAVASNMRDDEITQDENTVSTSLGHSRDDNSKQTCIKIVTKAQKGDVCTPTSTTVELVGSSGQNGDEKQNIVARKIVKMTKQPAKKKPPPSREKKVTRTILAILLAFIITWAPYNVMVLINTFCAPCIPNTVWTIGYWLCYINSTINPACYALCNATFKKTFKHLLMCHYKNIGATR

In general, Ki refers to a dissociation constant, usually derived from enzyme kinetics or from competition with a known ligand. Low readings indicate a stronger hold on the target, high ones a looser hold on the target. As to `CN(C)CCCN1c2ccccc2CCc2ccccc21`, affinity in assay [1] was put at a Ki of 0.13 nM. Same read-out and setting: under `C=C[C@@H]1CN2CC[C@H]1C[C@@H]2[C@H](O)c1ccnc2ccc(OC)cc12` [Quinidine] stands 7.5 nM. Take `CCN(CC)CC1CCCCN1CC(=O)N1c2ccccc2C(=O)Nc2cccnc21` (configuration not stated) [(AF-DX 116) 11-[2-(2-Diethylaminomethyl-piperidin-1-yl)-acetyl]-5,11-dihydro-benzo[e]pyrido[3,2-b][1,4]diazepin-6-one]: the Ki in assay [2] is 50 nM; in assay [1] it was 67 nM.

As for `CC[N+](CC)(CC)CCOc1cccc(OCC[N+](CC)(CC)CC)c1OCC[N+](CC)(CC)CC`, in assay [2], the Ki was 2610 nM. `C[C@H]1OC(=O)C2C[C@H]3CCCC[C@@H]3[C@@H](/C=C/[C@@H]3CCC[C@H](C)N3C)C21` (some centres not stated) [HIMBACINE]: the Ki in assay [2] is 14 nM; in assay [1], 12 nM. In assay [1], `C[N+](C)(C)CCCCCCCCCC[N+](C)(C)C` [Decamethonium Iodide] registered a Ki of 25 nM.

In assay [1], `COc1cc2c3cc1Oc1cc(ccc1O)C[C@H]1c4c(cc(OC)c(O)c4Oc4ccc(cc4)C[C@@H]3N(C)CC2)CC[N+]1(C)C` [CAS_57-94-3] gave a Ki of 97 nM. With `O=C1CCCN1CC#CCN1CCCC1` [1-[4-(2-oxo-pyrrolidin-1-yl)-but-2-ynyl]-pyrrolidinium], the results for the Ki in assay [2] and in assay [1] were 290 nM and 235 nM, respectively. The molecule `C[N+]1(C)CCO[C@@](O)(c2ccc(-c3ccc([C@@]4(O)C[N+](C)(C)CCO4)cc3)cc2)C1` [CAS_312-45-8] registered a Ki in assay [1] of 11 nM.
